The structures appear in SMILES notation. In brackets after ≈: the same amount, converted by molar mass. Several values for one entry are separate records, joined by “and”; a condition that tells them apart may be missing. Equal entries are not always repeated. Where two headings read alike, the source gives them in different places.

In data set [1] the test system is Mycobacterium tuberculosis H37Rv. Put plainly: MIC determination (PrestoBlue). The class given is cell-based. Conditions: Mycobacterium tuberculosis, H37RV.
Another data set has as its system Enterococcus faecalis. Briefly: MIC determination. It counts as cell-based.
Data set [2] deals with E. faecium strains 3303, 69C6, 58C9 and 55A6. Briefly: Kill curves (CFU by serial dilution). The class given is cell-based, Enterococcus faecium. The settings on record: for kinetics of E. faecium killing: at equal concentrations of CBD, CBG, or CBC; for kinetics of E. faecium killing / bactericidal activity (viability, CFU): FIG. 1; for bactericidal activity (viability, CFU): cannabinoid alone, 1x-4x MIC, planktonic E. faecium; for growth and CFU in combination with daptomycin: ½×MIC of cannabinoid with 1×-⅛×MIC of daptomycin, strains 3303, 58C9, 55A6.

The subject of data set [3] is Staphylococcus epidermidis ATCC 12228. Briefly: MIC determination. The class given is cell-based. Conditions: ATCC12228.
The test system of a further data set is E. faecium 3303. Briefly: microbe, parasite or virus in culture. The settings on record: for MIC Alone / MIC: compound alone in checkerboard; for Max. fold change in MIC: decrease; for MIC: Enterococcus faecium, 3303, read-out: MIC Alone, E. faecium 3303. It counts as cell-based, Enterococcus faecium. From the text:
In therapeutic applications, synergy between active ingredients occurs when an observed combined therapeutic effect is greater than the sum of therapeutic effects of individual active ingredients, or a new therapeutic effect is produced that the active ingredients could not produce alone. […] In this context, the enhancement of therapeutic effect may take the form of increased efficacy or potency and/or decreased adverse effects. The synergistic effect may be mediated in whole or in part by the pharmacokinetics and/or pharmacodynamics of the active ingredients in a subject, so that the amount and proportion of the ingredients in the formulation may be synergistic in vivo. This in vivo synergy may be effected with a formulation that includes the active ingredients in amounts and proportions that are also synergistic in in vitro assays of efficacy. As used herein, the term “synergistically effective amounts” accordingly refers to amounts that are synergistic in vivo and/or in vitro. A numeric quantification of synergy is often expressed as a fractional inhibitory concentration index (FICI), which represents the sum of the fractional inhibitory concentrations (FICs) of each drug tested, where the FIC is determined for each drug by dividing the minimum inhibitory concentration (MIC, the lowest concentration of the drug which prevents visible growth of the bacterium in a standard in vitro assay-standard colorometric assay based on resazurin) of each drug when used in combination by the MIC of each drug when used alone. In very general terms, a FICI lower or higher than 1 indicates positively correlated activity (at least additive or potentiation) or an absence of positive interactions, respectively. More definitively, synergy of two compounds may be conservatively defined as a FICI of ::::0.5 (see Odds, 2003; with additivity or potentiation corresponding to a FICI of >0.5 to ::::0.75; no interaction (indifference) corresponding to a FICI of >1 to ::::4; and antagonism corresponding to a FICI of >>4). Synergy of three compounds has been defined as a FICI of ::::1.0. (Berenbaum, 1978; Yu et al., 1980). To estimate the optimal concentrations in triple combinations, the optimal concentrations of trans-caryophyllene and cannabinoid were utilized in combination with a series of daptomycin dilutions.
Pre-cultures of bacteria growing in their corresponding liquid media (defined below) were diluted to an 00600 of 0.0025 and 100 μl was added to 100 μl of medium containing serial 2-fold dilutions of cannabinoid (cannabinoid stocks, in methanol or acetonitrile for acidic forms, were diluted in growth medium) in 96-well plates. Plates were then incubated for 20-24 h at 37° C., and growth was recorded as 00600 in a Thermo Scientific™ Varioskan™ Flash Multimode Reader.
Method for Tables 4-7. Interaction of Cannabinoids CBC, CBD and CBG with Terpenes and Daptomycin:
FICI values was determined in a 96 well checkerboard format using the MIC assay for cannabinoids (compound A), terpenes (compound B), and daptomycin (compound C) alone and in combinations. Terpene stocks were prepared in DMSO and diluted in the growth medium. The fractional inhibitory concentration for each compound was calculated as follows: FICA=(MIC of compound A in the presence of compound B)/(MIC of compound A alone). Similarly, the FICs for compounds Band C were calculated. The FICI was calculated as FICA plus FICs plus FICc.

In data set [4] the test system is Enterococcus faecium 33D3. The settings on record: for Fold reduction in daptomycin MIC in combination with the cannabinoid: E. faecium isolate 3303; for MIC: clinical enterococcal strain 3303.
Data set [5] concerns biofilms of E. faecium strain 3303. Put plainly: Biofilm treatment (crystal violet mass, viable bacteria). It counts as cell-based, Enterococcus faecium. Conditions: 48 h biofilms of strain 3303 treated 72 h; FIG. 4. As to the method:
The data in FIG. 4 was generated by growing biofilms of E. faecium strain 3303 for 48 h without cannabinoids, then treating the biofilms with cannabinoids for 72 h. The mass of the biofilm was quantitated by crystal violet staining. Viable bacteria in the biofilm were quantitated by scrapping biofilm then counting the viable bacteria. As illustrated, CBO and CBG illustrate a surprising degree of antibiotic activity against the strain 3303 of E. faecium. Of note, CBC was bactericidal against planktonic Enterococci.

The next data set deals with enterococci. Conditions: MIC 4 mg/L; 6 mg/kg doses; enterococcal bacteremia; cited from earlier work.
The mark [6] stands for this setting: E. faecium 3303, pairwise, with daptomycin.
Setting [7] is: E. faecium 3303, pairwise, with trans-caryophyllene.
The mark [8] stands for this setting: E. faecium 3303, triple, with daptomycin and trans-caryophyllene.
[9] abbreviates: E. faecium 3303, pairwise, with CBC.
Where [10] appears, read: E. faecium 3303, pairwise, with CBD.
Where [11] appears, read: E. faecium 3303, pairwise, with CBG.
Setting [12] is: E. faecium 3303, text b61, Table 5.
The mark [13] stands for this setting: E. faecium 3303, triple, with CBC and trans-caryophyllene.
[14] abbreviates: E. faecium 3303, triple, with CBG and trans-caryophyllene.

Consider `CCCCCc1cc(O)c2c(c1)OC(C)(CCC=C(C)C)C=C2` (stereo not shown) [CBC, cannabichromene], for which the MIC stood at 8 µg/mL (≈ 25.4 µM) in data set [1] (Media 7H9, read-out: MIC); 4 µg/mL (≈ 12.7 µM) in data set [1] (Media PB, read-out: MIC); 2 µg/mL (≈ 6.36 µM) in the data set on Enterococcus faecalis; 4 µg/mL (≈ 12.7 µM) in data set [3] (Staphylococcus epidermidis); 1 µg/mL in the data set with E. faecium 3303. The “kinetics of E. faecium killing” value in data set [2] is recorded as “faster than for CBO”. Also, the “bactericidal activity (viability, CFU)” value in data set [2] is recorded as “bactericidal”. Further, the “growth and CFU in combination with daptomycin” value (“growth and CFU in combination” for short) in data set [2] was “significantly inhibited growth of all strains and reduced CFU”. Moreover, in the data set with E. faecium 3303 (E. faecium 3303), the “MIC Alone” value stood at 2 mg/L. Also, the “MIC In combination” value in the data set on E. faecium 3303 (setting [6]) is given as 0.5 mg/L; in the data set with E. faecium 3303 (setting [7]), 0.125 mg/L; with E. faecium 3303 (setting [8]) it was 0.25 mg/L. In addition, the “Max. fold change in MIC” value in the data set with E. faecium 3303 (setting [6]) is 4 l fold; with E. faecium 3303 (setting [7]), 16 l fold; in the data set with E. faecium 3303 (setting [8]) it was 8 l fold. For the same compound, the “Fold reduction in daptomycin MIC in combination with the cannabinoid” value in data set [4] turned out to be 128 Fold.
Take `C=C(C)[C@@H]1CCC(C)=C[C@H]1c1c(O)cc(CCCCC)cc1O` [CBD, cannabidiol, reference compound]: the MIC in data set [1] (Media 7H9, read-out: MIC) amounted to 16 µg/mL (≈ 50.9 µM); in data set [1] (Media PB, read-out: MIC), 4 µg/mL (≈ 12.7 µM); in the data set with Enterococcus faecalis (read-out: MIC) it was 2 µg/mL (≈ 6.36 µM); in data set [3] (Staphylococcus epidermidis ATCC 12228, read-out: MIC) it was 2 µg/mL (≈ 6.36 µM); in the data set on E. faecium 3303, 4 µg/mL. Also, in data set [2], the “bactericidal activity (viability, CFU)” value was “bactericidal”. In addition, in data set [2], the “growth and CFU in combination” value was “significantly inhibited growth of all strains and reduced CFU”. Also, the “inhibition of E. faecium biofilm growth” value in data set [5] is “surprisingly effective at inhibiting E. faecium biofilm growth”. In addition, the “MIC Alone” value with E. faecium 3303 (E. faecium 3303) came out at 2 mg/L. For the same compound, the results for the “MIC In combination” value in the data set with E. faecium 3303 (setting [6]), in the data set on E. faecium 3303 (setting [7]) and in the data set with E. faecium 3303 (setting [8]) were 1 mg/L, 0.125 mg/L and 0.5 mg/L, respectively. Further, the “Max. fold change in MIC” value is 4″′ fold with E. faecium 3303 (setting [6]), 16″′ fold with E. faecium 3303 (setting [7]) and 4 fold with E. faecium 3303 (setting [8]).
For `CCCCCc1cc(O)c(C/C=C(\C)CCC=C(C)C)c(O)c1` [CBG, cannabigerol], the MIC in data set [1] (Media 7H9, read-out: MIC) stood at 2 µg/mL (≈ 6.32 µM); in data set [1] (Media PB, read-out: MIC), 2 µg/mL (≈ 6.32 µM); against Enterococcus faecalis, 1 µg/mL (≈ 3.16 µM); in data set [3] (Staphylococcus epidermidis), 2 µg/mL (≈ 6.32 µM). Besides, the “kinetics of E. faecium killing” value in data set [2] is given as “faster than for CBO”. In addition, the “bactericidal activity (viability, CFU)” value in data set [2] is “bactericidal”. In data set [2], the “growth and CFU in combination” value was “significantly inhibited growth of all strains and reduced CFU”. In data set [5], the “inhibition of E. faecium biofilm growth” value is reported as “surprisingly effective at inhibiting E. faecium biofilm growth”. Further, the “MIC In combination” value in the data set on E. faecium 3303 (setting [6]) turned out to be 0.125 mg/L; with E. faecium 3303 (setting [7]), 0.125 mg/L; with E. faecium 3303 (setting [8]), 0.25 mg/L. Moreover, the entries for the “Max. fold change in MIC” value with E. faecium 3303 (setting [6]), with E. faecium 3303 (setting [7]) and with E. faecium 3303 (setting [8]) were 32″′ fold, 16″′ fold and 4 fold, respectively. Moreover, the “Fold reduction in daptomycin MIC in combination with the cannabinoid” value in data set [4] is given as 32 Fold.
As for `CCCCCCCCCC(=O)N[C@@H](Cc1c[nH]c2ccccc12)C(=O)N[C@H](CC(N)=O)C(=O)N[C@@H](CC(=O)O)C(=O)N[C@@H]1C(=O)NCC(=O)N[C@@H](CCCN)C(=O)N[C@@H](CC(=O)O)C(=O)N[C@H](C)C(=O)N[C@@H](CC(=O)O)C(=O)NCC(=O)N[C@H](CO)C(=O)N[C@@H]([C@H](C)CC(=O)O)C(=O)N[C@@H](CC(=O)c2ccccc2N)C(=O)O[C@@H]1C` [Daptomycin, daptomycin, reference compound], the “reduction in CFU” value in data set [2] (daptomycin alone at 1×MIC (growth inhibited)) is reported as “no reduction in CFU”. The inhibition of growth result in data set [2] (single agent at ½×MIC, all strains (3303, 58C9, 55A6)) was “effectively no inhibition of growth”. In the data set on enterococci, the “probability of attaining target pharmacokinetic parameters” value is given as 1.5-5.5%. The “MIC Alone” value in the data set on E. faecium 3303 (E. faecium 3303) turned out to be 8 mg/L; in the data set on E. faecium 3303 (E. faecium 3303, listed as daptomycin), 4 mg/L. The “MIC In combination” value is reported as 0.03125 mg/L in the data set on E. faecium 3303 (setting [9]); 0.25 mg/L with E. faecium 3303 (setting [10]); 0.25 mg/L in the data set with E. faecium 3303 (setting [11]); 0.5 mg/L in the data set with E. faecium 3303 (setting [7]); 4 mg/L in the data set with E. faecium 3303 (setting [13]); 0.03 mg/L in the data set with E. faecium 3303 (E. faecium 3303, triple, with CBD and trans-caryophyllene). The “MIC In combination” value with E. faecium 3303 (setting [14]) amounted to 2 mg/L. Besides, the “Max. fold change in MIC” value in the data set on E. faecium 3303 (setting [9]) is 128 l fold; in the data set with E. faecium 3303 (E. faecium 3303, pairwise, with CBC, listed as daptomycin), 128 fold; with E. faecium 3303 (setting [10]) it was 16″′ fold; in the data set with E. faecium 3303 (setting [11]), 32″′ fold; with E. faecium 3303 (setting [7]), 8 l fold and 8″′ fold; in the data set on E. faecium 3303 (setting [13]), 2 l fold. Moreover, the “Max. fold change in MIC” value is 256 fold in the data set on E. faecium 3303 (E. faecium 3303, triple, with CBD and trans-caryophyllene, listed as daptomycin); 4 l fold with E. faecium 3303 (setting [14]). In the data set with E. faecium 3303 (setting [12]), the “MIC of daptomycin (alone)” value stood at 8 µg/mL. In addition, in the data set with E. faecium 3303 (setting [12]), the “MIC of daptomycin in the presence of CBO and trans caryophyllene” value was 0.03 µg/mL. Besides, the results for the MIC in data set [4] and in data set [4] (listed as daptomycin) were 2 mg/L (≈ 1.23 µM) and 1 mg/L (≈ 0.617 µM), respectively.

Source of the values: patent US11744819B2, “Antibiotic cannabinoid-terpene formulations” (priority 2019, dated 2023).
